Data published in patent US11739074B2, “Ras inhibitors” (Revolution Medicines, Inc., priority 2019, dated 2023).
pEC50, pIC50: −log10 of the molar value. Like-named read-outs stand apart in the source and are kept apart here.

How the values were obtained:
AsPC-1 (K-Ras G12D) [1] = experiment: Potency assay: pERK in AsPC-1 cells; format: cell-based; conditions: Homo sapiens
AsPC-1 (K-Ras G12D) [2] = experiment: CellTiter-Glo cell viability assay, AsPC-1; format: cell-based; conditions: Homo sapiens, ASPC1, 120 h
Protocol: Determination of Cell Viability in RAS Mutant Cancer Cell Lines
Protocol: CellTiter-Glo® Cell Viability Assay
Note—The following protocol describes a procedure for monitoring cell viability of K-Ras mutant cancer cell lines in response to a compound of the invention. Other RAS isoforms may be employed, though the number of cells to be seeded will vary based on cell line used.
Test compounds (132.5 nL) were directly dispensed into the assay plates containing cells. […] On day 5, assay plates and their contents were equilibrated to room temperature for approximately 30 minutes. […] Luminescence was measured using the PerkinElmer Enspire. Data were normalized by the following: (Sample signal/Avg. DMSO)*100. The data were fit using a four-parameter logistic fit.

[3] = ASPC1, AsPC-1 cells, K-Ras G12D, read-out: pERK EC50 (AsPC-1 KRAS G12D)
[4] = AsPC-1, K-Ras G12D, 5-day treatment, read-out: AsPC-1 Cell Viability IC50
[5] = ASPC1, read-out: pERK EC50 (AsPC-1 KRAS G12D)
[6] = read-out: AsPC-1 Cell Viability IC50, AsPC-1, K-Ras G12D, 5-day treatment

Row | Compound | pEC50 (AsPC-1 (K-Ras G12D) [1]; [3]) | pIC50 (AsPC-1 (K-Ras G12D) [2]; [4]) | pEC50 (AsPC-1 (K-Ras G12D) [1]; [5]) | pIC50 (AsPC-1 (K-Ras G12D) [2]; [6])
1 | CCn1c(-c2cccnc2[C@H](C)OC)c2c3cc(ccc31)-c1cc(O)cc(c1)C[C@H](NC(=O)[C@H](C(C)C)N(C)C(=O)[C@H]1CCN(S(=O)(=O)[C@H]3CN3C)C1)C(=O)N1CCC[C@H](N1)C(=O)OCC(C)(C)C2 (single isomer, unassigned) [Compound 57] | > 5.30 | 5.00 to 6.00 | – | –
2 | CCn1c(-c2cccnc2[C@H](C)OC)c2c3cc(ccc31)-c1cc(O)cc(c1)C[C@H](NC(=O)[C@H](C(C)C)N(C)C(=O)CN(C)S(=O)(=O)[C@H]1CN1C)C(=O)N1CCC[C@H](N1)C(=O)OCC(C)(C)C2 (single isomer, unassigned) [Compound 91] | > 5.30 | 5.00 to 6.00 | – | –
3 | CCn1c(-c2cccnc2[C@H](C)OC)c2c3cc(ccc31)-c1cc(O)cc(c1)C[C@H](NC(=O)[C@H](C(C)C)N(C)C(=O)CN(C)S(=O)(=O)[C@@H]1CN1C)C(=O)N1CCC[C@H](N1)C(=O)OCC(C)(C)C2 (single isomer, unassigned) [Compound 92] | > 5.30 | 5.00 to 6.00 | – | –
4 | CCn1c(-c2cccnc2[C@H](C)OC)c2c3cc(ccc31)-c1cc(O)cc(c1)C[C@H](NC(=O)[C@H](C(C)C)N(C)C(=O)C1CCN(S(=O)(=O)[C@H]3CN3C)CC1)C(=O)N1CCC[C@H](N1)C(=O)OCC(C)(C)C2 (single isomer, unassigned) [Compound 108] | > 5.30 | 5.00 to 6.00 | – | –
5 | CCn1c(-c2cccnc2[C@H](C)OC)c2c3cc(ccc31)-c1cc(O)cc(c1)C[C@H](NC(=O)[C@H](C(C)C)N(C)C(=O)C1CN(S(=O)(=O)[C@H]3CN3C)C1)C(=O)N1CCC[C@H](N1)C(=O)OCC(C)(C)C2 (single isomer, unassigned) [Compound 117] | > 5.30 | 5.00 to 6.00 | – | –
6 | CCn1c(-c2cccnc2[C@H](C)OC)c2c3cc(ccc31)-c1cc(O)cc(c1)C[C@H](NC(=O)[C@H](C(C)C)N(C)C(=O)C1CN(S(=O)(=O)[C@@H]3CN3C)C1)C(=O)N1CCC[C@H](N1)C(=O)OCC(C)(C)C2 (single isomer, unassigned) [Compound 118] | > 5.30 | < 5.00 | – | –
7 | CCn1c(-c2cccnc2[C@H](C)OC)c2c3cc(ccc31)-c1cc(O)cc(c1)C[C@H](NC(=O)[C@H](C(C)C)N(C)C(=O)C1CCN(S(=O)(=O)[C@@H]3CN3C)CC1)C(=O)N1CCC[C@H](N1)C(=O)OCC(C)(C)C2 (single isomer, unassigned) [Compound 119] | > 5.30 | 5.00 to 6.00 | – | –
8 | CCn1c(-c2cccnc2[C@H](C)OC)c2c3cc(ccc31)-c1cc(O)cc(c1)C[C@H](NC(=O)[C@H](C1CCCC1)N(C)C(=O)CN(C)C(=O)[C@@H]1N[C@@H]1C1(C#N)CC1)C(=O)N1CCC[C@H](N1)C(=O)OCC(C)(C)C2 (single isomer, unassigned) [Compound 308] | > 5.30 | 5.00 to 6.00 | – | –
9 | CCn1c(-c2cnccc2COC)c2c3cc(ccc31)-c1cccc(c1)C[C@H](NC(=O)[C@H](C(C)C)N(C)C(=O)CCN=C=NC1(COC)CC1)C(=O)N1CCC[C@H](N1)C(=O)OCC(C)(C)C2 [72 A and B] | > 5.30 | 5.00 to 6.00 | – | –
10 | CCn1c(-c2cnccc2COC)c2c3cc(ccc31)-c1cccc(c1)C[C@H](NC(=O)[C@H](C(C)C)N(C)C(=O)CCN=C=NC(C)(C)C)C(=O)N1CCC[C@H](N1)C(=O)OCC(C)(C)C2 [79 A and B] | > 5.30 | 5.00 to 6.00 | – | –
11 | CCn1c(-c2cnccc2COC)c2c3cc(ccc31)-c1cc(O)cc(c1)C[C@H](NC(=O)[C@H](C(C)C)N(C)C(=O)CN(C)C(=O)[C@H]1N[C@H]1C(=O)OC)C(=O)N1CCC[C@H](N1)C(=O)OCC(C)(C)C2 [Compound 51] | – | – | > 5.30 | < 5.00
12 | CCn1c(-c2cccnc2[C@H](C)OC)c2c3cc(ccc31)-c1cccc(c1)C[C@H](NC(=O)[C@H](C(C)C)N(C)C(=O)CCN=C=NCCOC)C(=O)N1CCC[C@H](N1)C(=O)OCC(C)(C)C2 [Compound 74] | > 5.30 | 5.00 to 6.00 | – | –
13 | CCn1c(-c2cccnc2[C@H](C)OC)c2c3cc(ccc31)-c1cccc(c1)C[C@H](NC(=O)[C@H](C(C)C)N(C)C(=O)[C@H]1C[C@H](N=C=NCCOC)C1)C(=O)N1CCC[C@H](N1)C(=O)OCC(C)(C)C2 [Compound 78] | > 5.30 | 5.00 to 6.00 | – | –
14 | CCn1c(-c2cccnc2[C@H](C)OC)c2c3cc(ccc31)-c1cc(O)cc(c1)C[C@H](NC(=O)[C@H](C(C)C)N(C)C(=O)c1ncc(NC(=O)[C@H]3CN3)n1C)C(=O)N1CCC[C@H](N1)C(=O)OCC(C)(C)C2 [Compound 84] | > 5.30 | 5.00 to 6.00 | – | –
15 | CCn1c(-c2cccnc2[C@H](C)OC)c2c3cc(ccc31)-c1cc(O)cc(c1)C[C@H](NC(=O)[C@H](C(C)C)N(C)C(=O)C1CCN(C(=O)[C@H]3CN3)CC1)C(=O)N1CCC[C@H](N1)C(=O)OCC(C)(C)C2 [Compound 86] | > 5.30 | 5.00 to 6.00 | – | –
16 | CCn1c(-c2cccnc2[C@H](C)OC)c2c3cc(ccc31)-c1cc(O)cc(c1)C[C@H](NC(=O)[C@H](C(C)C)N(C)C(=O)C1CCN(C(=O)[C@@H]3CN3)CC1)C(=O)N1CCC[C@H](N1)C(=O)OCC(C)(C)C2 [Compound 89] | > 5.30 | < 5.00 | – | –

Row | Compound | pEC50 (AsPC-1 (K-Ras G12D) [1]; [3]) | pIC50 (AsPC-1 (K-Ras G12D) [2]; [4]) | pEC50 (AsPC-1 (K-Ras G12D) [1]; [5]) | pIC50 (AsPC-1 (K-Ras G12D) [2]; [6])
17 | CCn1c(-c2cnccc2COC)c2c3cc(ccc31)-c1cc(O)cc(c1)C[C@H](NC(=O)[C@H](C(C)C)N(C)C(=O)CN(C)C(=O)[C@H]1N[C@H]1c1ccc(OC)cc1)C(=O)N1CCC[C@H](N1)C(=O)OCC(C)(C)C2 [Compound 93] | – | – | > 5.30 | < 5.00
18 | CCn1c(-c2cnccc2COC)c2c3cc(ccc31)-c1cc(O)cc(c1)C[C@H](NC(=O)[C@H](C(C)C)N(C)C(=O)CN(C)C(=O)[C@H]1N[C@@H]1c1ccc(OC)cc1)C(=O)N1CCC[C@H](N1)C(=O)OCC(C)(C)C2 [Compound 97] | – | – | > 5.30 | 5.00 to 6.00
19 | CCn1c(-c2cnccc2COC)c2c3cc(ccc31)-c1cc(O)cc(c1)C[C@H](NC(=O)[C@H](C(C)C)N(C)C(=O)CN(C)C(=O)[C@H]1N[C@H]1C1CC1)C(=O)N1CCC[C@H](N1)C(=O)OCC(C)(C)C2 [Compound 104] | – | – | > 5.30 | 5.00 to 6.00
20 | CCn1c(-c2cnccc2COC)c2c3cc(ccc31)-c1cc(O)cc(c1)C[C@H](NC(=O)[C@H](C(C)C)N(C)C(=O)CN(C)C(=O)[C@@H]1N[C@@H]1C)C(=O)N1CCC[C@H](N1)C(=O)OCC(C)(C)C2 [Compound 105] | – | – | > 5.30 | 5.00 to 6.00
21 | CCn1c(-c2cccnc2[C@H](C)OC)c2c3cc(ccc31)-c1cc(O)cc(c1)C[C@H](NC(=O)[C@H](C(C)C)N(C)C(=O)[C@H]1CN1)C(=O)N1CCC[C@H](N1)C(=O)OCC(C)(C)C2 [Compound 112] | > 5.30 | 5.00 to 6.00 | – | –
22 | CCn1c(-c2cccnc2[C@H](C)OC)c2c3cc(ccc31)-c1cc(O)cc(c1)C[C@H](NC(=O)[C@H](C(C)C)N1CCC3(CCN(C(=O)[C@@H]4CN4)C3)C1=O)C(=O)N1CCC[C@H](N1)C(=O)OCC(C)(C)C2 (some centres unmarked) [Compound 113] | > 5.30 | 5.00 to 6.00 | – | –
23 | CCn1c(-c2cccnc2[C@H](C)OC)c2c3cc(ccc31)-c1cc(O)cc(c1)C[C@H](NC(=O)[C@H](C(C)C)N(C)C(=O)[C@@H](C)N(C)C(=O)[C@H]1CN1)C(=O)N1CCC[C@H](N1)C(=O)OCC(C)(C)C2 [Compound 114] | – | – | > 5.30 | 5.00 to 6.00
24 | CCn1c(-c2cnccc2COC)c2c3cc(ccc31)-c1cc(O)cc(c1)C[C@H](NC(=O)[C@H](C(C)C)N(C)C(=O)CCNC1=NCCO1)C(=O)N1CCC[C@H](N1)C(=O)OCC(C)(C)C2 [Compound 120] | > 5.30 | 5.00 to 6.00 | – | –
25 | CCn1c(-c2cccnc2[C@H](C)OC)c2c3cc(ccc31)-c1cccc(c1)C[C@H](NC(=O)[C@H](C(C)C)N1CC[C@@H](CN=C=NCCOC)C1)C(=O)N1CCC[C@H](N1)C(=O)OCC(C)(C)C2 [Compound 121] | > 5.30 | 5.00 to 6.00 | – | –
26 | CCn1c(-c2cccnc2[C@H](C)OC)c2c3cc(ccc31)-c1cccc(c1)C[C@H](NC(=O)[C@H](C(C)C)N(C)C(=O)[C@H]1CC[C@H](N=C=NC(C)C)C1)C(=O)N1CCC[C@H](N1)C(=O)OCC(C)(C)C2 [Compound 124] | > 5.30 | – | – | –
27 | CCn1c(-c2cccnc2[C@H](C)OC)c2c3cc(ccc31)-c1cc(O)cc(c1)C[C@H](NC(=O)[C@H](C(C)C)N(C)C(=O)N1C[C@@H]3[C@H]1CCN3C(=O)[C@H]1CN1)C(=O)N1CCC[C@H](N1)C(=O)OCC(C)(C)C2 [Compound 250] | – | < 5.00 | – | –
28 | CCn1c(-c2cccnc2[C@H](C)OC)c2c3cc(ccc31)-c1cc(O)cc(c1)C[C@H](NC(=O)[C@H](C(C)C)N(C)C(=O)N1C[C@@H]3[C@H]1CCN3C(=O)[C@@H]1CN1)C(=O)N1CCC[C@H](N1)C(=O)OCC(C)(C)C2 [Compound 251] | – | < 5.00 | – | –
29 | CCn1c(-c2cccnc2[C@H](C)OC)c2c3cc(ccc31)-c1cc(O)cc(c1)C[C@H](NC(=O)[C@H](C(C)C)N(C)C(=O)N1CC[C@@H](N(C)C(=O)[C@H]3CN3)C1)C(=O)N1CCC[C@H](N1)C(=O)OCC(C)(C)C2 [Compound 252] | – | < 5.00 | – | –
30 | CCn1c(-c2cccnc2[C@H](C)OC)c2c3cc(ccc31)-c1cc(O)cc(c1)C[C@H](NC(=O)[C@H](C(C)C)N(C)C(=O)N1CC[C@@H](N(C)C(=O)[C@@H]3CN3)C1)C(=O)N1CCC[C@H](N1)C(=O)OCC(C)(C)C2 [Compound 253] | – | < 5.00 | – | –
31 | CCn1c(-c2cccnc2[C@H](C)OC)c2c3cc(ccc31)-c1cc(O)cc(c1)C[C@H](NC(=O)[C@@H](COC1CN(C(=O)[C@H]3CN3)C1)C(C)C)C(=O)N1CCC[C@H](N1)C(=O)OCC(C)(C)C2 [Compound 312] | – | < 5.00 | – | –
